Data as given in patent US20120015882A1, “COMPOSITION FOR REGULATING AUTONOMIC NERVOUS ACTIVITY AND METHOD FOR REGULATING AUTONOMIC NERVE” (priority 2009, published 2012).

Legend:
autonomic nerve = settings: intravenous administration; cited from earlier work
[1] = test system: sympathetic nerve in a cutaneous artery of the tail; assay: Action potential of the sympathetic nerve in the cutaneous artery of the tail (CASNA) after oral administration; format: in vivo, rat; settings: rats, 0.12 mg/kg weight, 5 to 60 minutes after administration
Procedure: Water, 0.12 mg/kg weight of Tyr-Pro, or 4.2 mg/kg weight of a casein hydrolysate was administered to rats (n=3), and the action potential of the sympathetic nerve in the cutaneous artery of the tail was measured over time. […] Values for 5 to 60 minutes after the administration were treated as a group, and a significance test with respect to the water-administered control group was conducted by the analysis of variance (ANOVA).
Male Wister rats (approximately 0-week old) (n=3) with a body weight of approximately 300 g were used, and they took food and water ad lib. To examine the activity of the autonomic nerve, after a 3-hour fast, a polyethylene tube for oral administration was inserted into the oral cavity of each rat under urethane anesthesia in the middle of a light period. Thereafter, a sympathetic nerve controlling the adrenal gland, a parasympathetic (vagus) nerve controlling the stomach, or sympathetic nerve in a cutaneous artery of the tail was hooked to a silver electrode, and the electrical activity of the nerve was determined. […] In a period where the activities of these nerves were stabilized, 1 ml of each sample was orally administered through a polyethylene tube, and the changes in activities of these nerves were measured. […]

[2] = test system: scopolamine-induced amnesia; assay: Scopolamine-induced amnesia, Y-shaped maze test (spontaneous alternation behavior); format: in vivo; settings: ddY mice, oral 1.5 mg/kg weight to 15 mg/kg weight, 60 minutes before Y-shaped maze; scopolamine 1 mg/kg s.c.
Procedure: A significance test on the groups was conducted by a Dunnett's multiple comparison test.
Male ddY mice (approximately 7-week old) (n=15) were used, and they took food and water ad lib.
The test substances were administered to the mice once orally 60 minutes before the execution of a Y-shaped maze test for evaluation of spontaneous alternation behavior. Further, 30 minutes before the execution of the Y-shaped maze test, 1 mg/kg weight of scopolamine was subcutaneously administered on the backs, of the mice in order to induce dysmnesia and/or cognitive impairment in the mice. […] The sequence of the arms into which each of the mice entered was recorded. The number of entries into the arms of each mouse during the measurement time was counted to be the total number of entries. […] The percentage of change in spontaneous alternation behavior was calculated by dividing the number of spontaneous alternation behavior by a number obtained by subtracting 2 from the total number of entries and multiplying a resultant number by 100. […] The measured values were expressed in the form of mean±standard error for each group. […]

[3] = test system: gastric emptying function; assay: Gastric emptying function test (phenol red dye discharge); format: in vivo, rat; settings: SD rats, oral 0.1 mg/kg weight, dye 30 minutes later, stomach extirpated 20 minutes after dye; mean±standard error; control 78.8±2.41%
Procedure: Water or 0.1 mg/kg weight of Tyr-Pro was administered to rats (n=10), and 30 minutes later a dye (phenol red) was administered. After additional 20 minutes, each stomach was extirpated, and the dye remaining in the stomach was determined. A significance test with respect to the water-administered control group was conducted by an unpaired Student's t test.
Male Sprague-Dawley (SD) rats (6-week old) (n=10) were used, and they took food and water ad lib. After preliminary feeding for one week or longer, the rats were subjected to the experiment. Prior to the test, all the rats were fasted in a fasting cage for 24 hours. During the period, the rats took water ad lib. In the test, a solvent (distilled water for injection) and 0.1 mg/kg weight of Tyr-Pro were orally administered to the rats, and, 30 minutes later, a 0.05% dye (phenol red) solution (containing 1.5% of carboxylmethyl cellulose) was orally administered at a volume of 1.5 ml/rat. Each stomach was extirpated under ether anesthesia 20 minutes after the administration of the dye without delay. […] The supernatant was centrifuged, and then measured for absorbance at 560 nm. The gastric emptying function (GE: gastric emptying) was calculated in accordance with the following formula.
GE(%)=(1−absorbance of solution recovered from stomachs of test-substance-administered group/absorbance at gastric emptying of 0%)×100 […]

[4] = test system: sympathetic nerve controlling the adrenal gland; assay: Action potential of the sympathetic nerve controlling the adrenal gland (ASNA) after oral administration; format: in vivo, rat; settings: rats, 0.012 mg/kg weight, 5 to 60 minutes after administration, ANOVA
Procedure: […] […] Values for 5 to 60 minutes after the administration were treated as a group, and a significance test with respect to the water-administered control group was conducted by the analysis of variance (ANOVA).
(§1) Male Wister rats (approximately […]) (n=3) with a body weight of approximately 300 g were used, and they took food and water ad lib. To examine the activity of the autonomic nerve, after a 3-hour fast, a polyethylene tube for oral administration was inserted into the oral cavity of each rat under urethane anesthesia in the middle of a light period. Thereafter, a sympathetic nerve controlling the adrenal gland, a parasympathetic (vagus) nerve controlling the stomach, or sympathetic nerve in a cutaneous artery of the tail was hooked to a silver electrode, and the electrical activity of the nerve was determined. From the start of the operation to the completion of the determination, the tube was kept inserted in the trachea to secure the airway, and the body temperature (rectal temperature of the rat) was kept at 35.0±0.5° C. by using an incubator. In a period where the activities of these nerves were stabilized, 1 ml of each sample was orally administered through a polyethylene tube, and the changes in activities of these nerves were measured. […]

[5] = test system: parasympathetic (vagus) nerve controlling the stomach; assay: Action potential of the parasympathetic (vagus) nerve controlling the stomach (GVNA) after oral administration; format: in vivo, rat; settings: rats, 5 to 60 minutes after administration, ANOVA
Procedure: Water or 0.045 mg/kg weight or 0.12 mg/kg weight of Tyr-Pro was administered to rats (n=3), and the action potential of the parasympathetic (vagus) nerve controlling the stomach was measured over time. […] Values for 5 to 60 minutes after the administration were treated as a group, and a significance test with respect to the water-administered control group was conducted by the analysis of variance (ANOVA).
as §1, with “From the start of the operation to the completion of the determination, the tube was kept inserted in the trachea to secure the airway, and the body temperature (rectal temperature of the rat) was kept at 35.0±0.5° C. by using an incubator.” left out

pain = settings: rat, intraperitoneal; cited from earlier work
blood pressure = settings: orally administered; cited from earlier work
[6] = test system: time of stay on the open arms; assay: Elevated plus-maze test (anti-anxiety effect); format: in vivo; settings: ddY mice, oral 0.1 mg/kg weight to 100 mg/kg weight, test 30 minutes after administration
Procedure: Water, 0.1 mg/kg weight to 100 mg/kg weight of Tyr-Pro, or 10 mg/kg to 1000 mg/kg weight of a casein hydrolysate was administered to mice (n=12), and the time for which the mice stayed on open arms was measured (Example 4). […] The data were expressed in the form of mean±standard error. A significance test with respect to the water-administered control group was conducted by an unpaired Student's t test, and *, **, and *** indicate that P<0.05, P<0.01, and P<0.001, respectively.
Male ddY mice (approximately 6-week old) (n=12) were used. After preliminary feeding, Tyr-Pro (0.1 mg/kg weight, 1.0 mg/kg weight, 10 mg/kg weight, 30 mg/kg weight, or 100 mg/kg weight) or a casein hydrolysate (10 mg/kg weight, 100 mg/kg weight, or 1000 mg/kg weight) was administered once orally. The anti-anxiety effect was examined by an elevated plus-maze test 30 minutes after the administration. The casein hydrolysate was the same as that in Example 1. […] The behaviors thereof were observed, and the accumulative time of stay on the open arms was measured. From the measured value, the percentage of the accumulative time of stay on the open arms in a 5-minute test was found, and used as an index of the anti-anxiety effect. […] The measured values were expressed in the form of mean±standard error for each group and a comparison with the control group was conducted by using an unpaired Student's t test.

opioid receptors = settings: cited from earlier work

Molecule | effect of controlling the autonomic nerve (autonomic nerve) | sympathetic nervous activity in the cutaneous artery in comparison with the water-administered group [1] | effect of preventing amnesia [2] | dye discharge percentage (gastric emptying, GE) [3] [%] | sympathetic nervous activity in the adrenal gland in comparison with the water-administered group [4] | parasympathetic nervous activity in the stomach in comparison with the water-administered group ([5]; 0.045 mg/kg weight) | parasympathetic nervous activity in the stomach in comparison with the water-administered group ([5]; 0.12 mg/kg weight) | analgesic effect (pain) | effect of lowering the blood pressure (blood pressure) | anti-anxiety effect [6] | binding capability to opioid receptors (opioid receptors)
NCCC(=O)N[C@@H](Cc1cnc[nH]1)C(=O)O [carnosine] | an effect of controlling the autonomic nerve | – | – | – | – | – | – | – | – | – | –
Tyr-Pro | – | a tendency was observed that the sympathetic nervous activity in the cutaneous artery was lowered | an effect of preventing amnesia | 85.4±2.01 | significantly decreased | significantly increased | significantly increased | exhibit an analgesic effect | effect of lowering the blood pressure | exhibited an anti-anxiety effect | lacks binding capability to opioid receptors
